{"source": "patent US20050288347A1", "about": "“Certain triazole-based compounds, compositions, and uses thereof” (priority 2004, published 2005)", "note": "“Also recorded” adds a separate entry of the source."}
{"target": "protein kinase", "assay": "HTS ATP-utilizing enzyme assay, off-chip mobility-shift format (Caliper HTS 250)", "type": "biochemical, human", "conditions": "kinase(s) for which the compound exhibits protein kinase inhibitory activity; test compound 10 μM; active = greater than three-sigma from the mean activity of inactive compounds", "method_in_brief": "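Single-point screen at 10 μM compound in HEPES pH 7.5 buffer with Triton X-100 and BSA, 2.5 h at 20–22 °C. Substrate-to-phosphopeptide ratio measured by off-chip microfluidic mobility shift; EDTA wells as 100% and DMSO wells as 0% control, hits called at three-sigma limits.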"}
{"smiles": "Cc1ccc(-n2c(SCC(=O)N3CCCCC3)nnc2-c2ccncc2)cc1", "Kinase": "FYN"}
{"smiles": "O=C(CSc1nnc(-c2ccc([N+](=O)[O-])cc2)n1CC1CCCO1)N1CCOCC1", "note": "(centres unmarked)", "Kinase": "PDGFRR-α"}
{"smiles": "NC(=O)c1c(NC(=O)CSc2nnc(-c3ccccc3)n2Cc2ccco2)sc2c1CCC2", "Kinase": "GSK3-α and GSK3-β and PAK2"}
{"smiles": "Cn1c(COc2ccc([N+](=O)[O-])cc2)nnc1SCC(=O)Nc1sc2c(c1C(N)=O)CCCC2", "Kinase": "GSK3-β; also recorded: GSK3-α; also recorded: AURORA-A"}
{"smiles": "NC(=O)c1c(NC(=O)CSc2nnc(-c3ccncc3)n2CC2CCCO2)sc2c1CCCC2", "note": "(centres unmarked)", "Kinase": "GSK3-β; also recorded: GSK3-α; also recorded: AURORA-A"}
{"smiles": "Cc1ccc(C)c(-n2c(SCC(N)=O)nnc2-c2ccc(O)cc2)c1", "Kinase": "GSK3-β; also recorded: GSK3-α; also recorded: CDK2-cyclinE"}
{"smiles": "CN(C)CCCn1c(SCC(=O)NCc2ccco2)nnc1-c1ccncc1", "Kinase": "PDGFRR-α and PAK2"}
{"smiles": "Cc1cc(C)nc(SCc2nnc(SCC#N)n2-c2cccc(Cl)c2)n1", "Kinase": "LYNA"}
{"smiles": "COc1ccc(-n2c(SCC(N)=O)nnc2-c2ccc(S(=O)(=O)N3CCCC3)cc2)cc1", "Kinase": "MAPKAPK-2"}
{"smiles": "COc1ccc(-n2c(SCC#N)nnc2-c2cccnc2)cc1", "Kinase": "AURORA-A"}
{"smiles": "COc1cc([N+](=O)[O-])ccc1NC(=O)CSc1nnc(-c2ccncc2)n1Cc1ccco1", "Kinase": "FYN and PDGFRR-α and FLT-3"}
{"smiles": "C=CCn1c(SCC(=O)Nc2cccc([N+](=O)[O-])c2)nnc1-c1ccncc1", "Kinase": "FYN"}
{"smiles": "NC(=O)CSc1nnc(CNc2ccc(F)cc2)n1Cc1ccccc1", "Kinase": "GSK3-β and AKT1 and GSK3-α"}
{"smiles": "CCn1c(SCC(=O)N2CCCC(C)C2)nnc1-c1ccc(S(=O)(=O)N2CCN(C)CC2)cc1", "note": "(centres unmarked)", "Kinase": "FYN"}
{"smiles": "CCn1c(SCC(=O)Nc2nc(C)cs2)nnc1-c1ccc(S(=O)(=O)N2CCN(C)CC2)cc1", "Kinase": "FYN"}
{"smiles": "CCn1c(COc2cccc3ccccc23)nnc1SCC(=O)NCC1CCCO1", "note": "(centres unmarked)", "Kinase": "FYN"}
{"smiles": "CCn1c(COc2cccc(C)c2)nnc1SCC(=O)N1CCCCC1", "Kinase": "FYN"}
{"smiles": "CCn1c(SCC(=O)NCc2ccco2)nnc1-c1ccccc1", "Kinase": "FYN"}
{"smiles": "Cn1c(SCC(=O)N2CCCC2)nnc1-c1ccc(S(=O)(=O)N2CCOCC2)cc1", "Kinase": "AURORA-A"}
{"smiles": "Cn1c(CNc2nc(-c3ccccc3)cs2)nnc1SCC(N)=O", "Kinase": "FYN"}
{"smiles": "Cn1c(COc2ccc3ccccc3c2)nnc1SCC(N)=O", "Kinase": "FYN"}
{"smiles": "NC(=O)CSc1nnc(-c2ccc(NS(=O)(=O)c3ccccc3)cc2)n1-c1ccccc1", "Kinase": "AURORA-A"}
{"smiles": "NC(=O)CSc1nnc(COc2cccc3cccnc23)n1-c1ccccc1", "Kinase": "MAPKAPK-2"}
{"smiles": "CC(C)N(C(=O)CSc1nnc(-c2ccccc2N)n1C)C(C)C", "Kinase": "FYN and PRAK"}
{"smiles": "O=C(CSc1nnc(-c2ccc(O)cc2)n1CC1CCCO1)Nc1nc2c(s1)CCCC2", "note": "(centres unmarked)", "Kinase": "GSK3-β; also recorded: AURORA-A"}
{"smiles": "COc1ccc(-c2nnc(SCC(=O)N(C)C)n2-c2ccccc2)cc1", "Kinase": "PDK1 and SYK and INSR"}
{"smiles": "COc1ccc(-c2nnc(SCC(=O)Nc3ccccc3)n2-c2ccccc2)cc1", "Kinase": "PRAK and CHEK2"}
{"smiles": "COc1ccc(-c2nnc(SCC(=O)N3CCOCC3)n2-c2ccccc2)cc1", "Kinase": "INSR and PRAK"}
{"smiles": "CNC(=O)CSc1nnc(-c2ccc(OC)cc2)n1-c1ccccc1", "Kinase": "SYK and PRAK"}
{"smiles": "Cn1c(Cn2nnc3ccccc32)nnc1SCC(=O)Nc1nccs1", "Kinase": "GSK3-β; also recorded: GSK3-α; also recorded: CDK2-cyclinE"}
{"smiles": "Cn1c(Cn2cnc3ccccc32)nnc1SCC(=O)Nc1ccccc1Cl", "Kinase": "FYN"}
{"smiles": "Cc1ccc(NCc2nnc(SCC(=O)NCc3ccco3)n2CC2CCCO2)c(C)c1", "note": "(centres unmarked)", "Kinase": "PDGFRR-α and FYN"}
{"smiles": "Cc1ccc(NCc2nnc(SCC(N)=O)n2Cc2ccco2)c(C)c1", "Kinase": "PDGFRR-α"}
{"smiles": "Cc1ccc(NCc2nnc(SCC#N)n2-c2ccccc2)c(C)c1", "Kinase": "AKT1"}
{"smiles": "CCn1c(COc2ccc(Cl)c(C)c2)nnc1SCC(=O)N1CCCCC1", "Kinase": "FYN"}
{"smiles": "CCOc1ccc(NCc2nnc(SCC(N)=O)n2-c2ccccc2)cc1", "Kinase": "FYN and PDGFRR-α and FLT-3"}
{"smiles": "COc1ccc(OCc2nnc(SC(C)C(=O)Nc3ccccc3C)n2C)cc1", "note": "(centres unmarked)", "Kinase": "PDGFRR-α"}
{"smiles": "N#CCSc1nnc(COc2cccc3ccccc23)n1-c1ccccc1", "Kinase": "MAPKAPK-2 and CDK1 and CDK5"}
{"smiles": "CCn1c(Cc2ccccc2)nnc1SCC(=O)N1CCCc2ccccc21", "Kinase": "FYN"}
{"smiles": "Cc1nc(NC(=O)CSc2nnc(C3CC3)n2C)sc1C", "Kinase": "GSK3-β; also recorded: GSK3-α"}
{"smiles": "Cn1c(SCC(=O)Nc2nc3c(s2)CCCC3)nnc1C1CC1", "Kinase": "CDK2-cyclinE"}
{"smiles": "O=C(O)c1ccc(-n2c(S)nnc2-c2cc(C3CC3)n[nH]2)cc1", "Kinase": "GSK3-α"}
{"smiles": "COc1ccc(-n2c(S)nnc2CNc2cccc(C(F)(F)F)c2)cc1", "Kinase": "GSK3-α; also recorded: GSK3-β"}
{"smiles": "CCN(CC)S(=O)(=O)c1ccc(-c2nnc(SCC(=O)N3C(C)CCCC3C)n2CC)cc1", "note": "(centres unmarked)", "Kinase": "PDGFRR-α and FYN"}
{"smiles": "COc1ccccc1OCc1nnc(S)n1Cc1ccco1", "Kinase": "AURORA-A; also recorded: GSK3-β; also recorded: GSK3-α"}
{"smiles": "FC(F)(F)c1cccc(NCc2nnc(S)n2-c2ccccc2)c1", "Kinase": "GSK3-α"}
{"smiles": "Cc1ccc(NCc2nnc(S)n2-c2ccccc2)cc1Cl", "Kinase": "GSK3-β; also recorded: GSK3-α; also recorded: AURORA-A"}
{"smiles": "COc1ccc(-c2nnc(SCC(=O)Nc3ccccc3Cl)n2-c2ccccc2)cc1", "Kinase": "INSR and SYK"}
{"smiles": "Cn1c(SCC(=O)Nc2cccc(NC(=O)c3ccco3)c2)nnc1-c1ccncc1", "Kinase": "GSK3-β; also recorded: AURORA-A; also recorded: GSK3-α"}
{"smiles": "COc1ccc(-c2nnc(SCC(=O)Nc3cccc(NC(=O)c4ccco4)c3)n2-c2ccccc2)cc1", "Kinase": "PRAK and CHEK2 and PKA"}
{"smiles": "COc1ccc(-c2nnc(SCC(=O)Nc3cccc(NC(=O)C4CCCO4)c3)n2-c2ccccc2)cc1", "note": "(centres unmarked)", "Kinase": "PRAK and CHEK2 and PKA"}
{"smiles": "Cc1nnc(SCC(=O)Nc2cccc(N)c2)n1-c1ccccc1", "Kinase": "FYN"}
{"smiles": "COc1ccc(-c2nnc(SCC(=O)Nc3cccc(Cl)c3)n2-c2ccccc2)cc1", "Kinase": "PRAK and CHEK2 and AURORA-A"}
{"smiles": "COc1ccc(NCc2nnc(SCC(=O)Nc3sc4c(c3C#N)CCCC4)n2C)cc1", "Kinase": "DYRK2; also recorded: CDK2-cyclinE"}
{"smiles": "Cn1c(SCC(=O)NCc2ccco2)nnc1-c1ccc(NC(=O)c2ccccc2)cc1", "Kinase": "CHEK2"}
{"smiles": "COCCn1c(SCC(=O)Nc2ccc(F)cc2)nnc1-c1ccncc1", "Kinase": "FYN"}
{"smiles": "Cc1nc(NC(=O)CSc2nnc(-c3cccnc3)n2Cc2ccco2)sc1C", "Kinase": "GSK3-β; also recorded: AURORA-A"}
{"smiles": "CCc1nnc(NC(=O)CSc2nnc(-c3ccc(NS(=O)(=O)c4ccc(C)cc4)cc3)n2C)s1", "Kinase": "PDGFRR-α"}
{"smiles": "CCc1nnc(NC(=O)CSc2nnc(-c3ccc(O)cc3)n2C)s1", "Kinase": "GSK3-β; also recorded: GSK3-α"}
{"smiles": "Cn1c(CNc2cccc(C(F)(F)F)c2)nnc1SCC(=O)Nc1ccc2c(c1)OCO2", "Kinase": "AURORA-A"}
{"smiles": "COc1ccc(-c2nnc(SCC(=O)NCC3CCCCC3)n2-c2ccccc2)cc1", "Kinase": "AKT3"}
{"smiles": "COCCCn1c(C)nnc1SCC(=O)NCc1ccco1", "Kinase": "FYN"}
{"smiles": "O=C(CSc1nnc(-c2ccncc2)n1Cc1ccco1)NCc1ccco1", "Kinase": "FYN"}
{"smiles": "Cn1c(CNc2nc(-c3ccccc3)cs2)nnc1SCC(=O)NCc1ccccc1", "Kinase": "PDGFRR-α and PKA"}
{"smiles": "COc1cccc(-n2c(SCC(=O)NC(C)(C)C)nnc2-c2cccnc2)c1", "Kinase": "AURORA-A"}
{"smiles": "CCOC(=O)CN(C(=O)CSc1nnc(-c2ccncc2)n1Cc1ccco1)c1cccc([N+](=O)[O-])c1", "Kinase": "FYN and GSK3-α"}
{"smiles": "CCOC(=O)c1ccc(NC(=O)CSc2nnc(COc3ccc(OC)cc3)n2CC)cc1", "Kinase": "FYN"}
{"smiles": "COCCn1c(SCC(=O)Nc2ccccc2C(=O)OC)nnc1-c1ccncc1", "Kinase": "GSK3-β; also recorded: GSK3-α"}
